Where a name gives a salt, the structure may show the parent alone.
How the values were obtained:
Conditions in all cases: exposure time: 72 h
[1] = system: E21 (patient-derived glioblastoma stem cells of mesenchymal subtype); test: surviving fraction (nuclei count normalised to DMSO); higher = more cells surviving (less toxic)
[2] = system: FT3469 (normal neural stem cell line); test: as above
[3] = system: E31 (patient-derived glioblastoma stem cells of proneural subtype); test: as above
[4] = system: E34 (patient-derived glioblastoma stem cells of proneural subtype); test: as above
[5] = system: E57 (patient-derived glioblastoma stem cells of mesenchymal subtype); test: as above
[6] = system: E28 (patient-derived glioblastoma stem cells of classical subtype); test: as above
[7] = system: E13 (patient-derived glioblastoma stem cells of classical subtype); test: as above
[8] = system: E21; test: phenotypic distance (Euclidean, principal components) from DMSO controls (arbitrary units); higher = stronger morphological change
[9] = system: FT3469; test: as above
[10] = system: E31; test: as above
[11] = system: E34; test: as above
[12] = system: E57; test: as above
[13] = system: E28; test: as above
[14] = system: E13; test: as above
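Wherever phenotypic distance (Euclidean, principal components) from DMSO controls is given: cell Painting imaging in 384-well plates, CellProfiler features reduced to at least 20 principal components, Euclidean distance versus same-plate DMSO vehicle wells (0.1% v/v), median over six images per well.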
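Wherever surviving fraction (nuclei count normalised to DMSO) is given: nuclei counted by high-content imaging of Hoechst-stained cells in laminin-coated 384-well plates, relative to 0.1% DMSO vehicle wells, with staurosporine as cell-death control.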

Nc1ccn([C@@H]2O[C@H](CO)[C@@H](O)C2(F)F)c(=O)n1 [Gemcitabine HCl]
Conditions	phenotypic distance	surviving fraction
[1], 4.1 nM	–	0.161
[1], 12.3 nM	–	0.173
[1], 37 nM	–	0.126
[1], 111.1 nM	–	0.143
[1], 333.3 nM	–	0.147
[1], 1000 nM	–	0.129
[1], 3000 nM	–	0.0999
[2], 4.1 nM	–	0.53
[2], 12.3 nM	–	0.842
[2], 37 nM	–	0.616
[2], 111.1 nM	–	0.663
[2], 333.3 nM	–	0.566
[2], 1000 nM	–	0.568
[2], 3000 nM	–	0.645
[3], 4.1 nM	–	0.147
[3], 12.3 nM	–	0.249
[3], 37 nM	–	0.161
[3], 111.1 nM	–	0.229
[3], 333.3 nM	–	0.201
[3], 1000 nM	–	0.199
[3], 3000 nM	–	0.161
[4], 4.1 nM	–	0.494
[4], 12.3 nM	–	0.545
[4], 37 nM	–	0.509
[4], 111.1 nM	–	0.52
[4], 333.3 nM	–	0.549
[4], 1000 nM	–	0.496
[4], 3000 nM	–	0.415
[5], 4.1 nM	–	0.168
[5], 12.3 nM	–	0.168
[5], 37 nM	–	0.156
[5], 111.1 nM	–	0.165
[5], 333.3 nM	–	0.139
[5], 1000 nM	–	0.159
[5], 3000 nM	–	0.149
[6], 4.1 nM	–	0.359
[6], 12.3 nM	–	0.438
[6], 37 nM	–	0.376
[6], 111.1 nM	–	0.456
[6], 333.3 nM	–	0.401
[6], 1000 nM	–	0.361
[6], 3000 nM	–	0.264
[7], 4.1 nM	–	0.327
[7], 12.3 nM	–	0.326
[7], 37 nM	–	0.331
[7], 111.1 nM	–	0.351
[7], 333.3 nM	–	0.32
[7], 1000 nM	–	0.333
[7], 3000 nM	–	0.352
[8], 4.1 nM	4.04	–
[8], 12.3 nM	4.48	–
[8], 37 nM	4.76	–
[8], 111.1 nM	5.02	–
[8], 333.3 nM	4.71	–
[8], 1000 nM	4.97	–
[8], 3000 nM	4.67	–
[9], 4.1 nM	1.82	–
[9], 12.3 nM	1.99	–
[9], 37 nM	2.01	–
[9], 111.1 nM	2.15	–
[9], 333.3 nM	1.98	–
[9], 1000 nM	1.8	–
[9], 3000 nM	1.5	–
[10], 4.1 nM	3.35	–
[10], 12.3 nM	2.57	–
[10], 37 nM	3.01	–
[10], 111.1 nM	2.66	–
[10], 333.3 nM	2.37	–
[10], 1000 nM	3	–
[10], 3000 nM	3.64	–
[11], 4.1 nM	3.49	–
[11], 12.3 nM	2.98	–
[11], 37 nM	3.41	–
[11], 111.1 nM	4.74	–
[11], 333.3 nM	3.17	–
[11], 1000 nM	2.85	–
[11], 3000 nM	2.83	–
[12], 4.1 nM	6.66	–
[12], 12.3 nM	8.21	–
[12], 37 nM	6.89	–
[12], 111.1 nM	7.27	–
[12], 333.3 nM	7.04	–
[12], 1000 nM	7.07	–
[12], 3000 nM	6.77	–
[13], 4.1 nM	3.94	–
[13], 12.3 nM	3.54	–
[13], 37 nM	3.74	–
[13], 111.1 nM	3.43	–
[13], 333.3 nM	3.31	–
[13], 1000 nM	3.19	–
[13], 3000 nM	4.17	–
[14], 4.1 nM	5.82	–
[14], 12.3 nM	5.84	–
[14], 37 nM	5.64	–
[14], 111.1 nM	4.94	–
[14], 333.3 nM	6.22	–
[14], 1000 nM	5.7	–
[14], 3000 nM	5.74	–
